Values quoted from earlier work as cited in US20230113077A1, “CONTROLLED RELEASE SELEXIPAG COMPOSITION” (ACTELION PHARMACEUTICALS LTD, priority 2020, published 2023).

Settings: phase III clinical trial; patients with pulmonary arterial hypertension; selexipag versus placebo

CC(C)N(CCCCOCC(=O)NS(C)(=O)=O)c1cnc(-c2ccccc2)c(-c2ccccc2)n1 [selexipag, 2-{4-[N-(5,6-diphenylpyrazin-2-yl)-N-isopropylamino]butyloxy}-N-(methylsulfonyl)acetamide]
risk of the primary composite end point of death or a complication related to pulmonary arterial hypertension: significantly lower
